The test system of one test is ventral pallidal neurons. Description: Electrophysiology of ventral pallidal neurons, i.v. METH dose-response in chloral hydrate-anesthetized rats. It counts as in vivo, rat. As for the experimental part: Based on the biochemical results and because the ventral pallidum contains one of the highest concentrations of 5-HT in the brain, electrophysiological evaluations of this region in rats behaviorally sensitized to METH were conducted (with a 5-day once daily treatment of 2.5 mg/kg). The acute challenge was intravenously administered METH (via a tail vein cannula) as previously used by T. C. Napier's lab ^e.g., [34] where the drug is given in a cumulative dosing fashion such that each dose, administered in 2 min-intervals, essentially doubles the previous dose. METH was tested using a range of 0.06-4.0 mg/kg in saline vehicle. […] Moreover, this approach establishes if systemic administration of METH, in doses that include those producing behavioral sensitization, are sufficient promote sensitized cellular responding and thus allows for direct comparisons of cellular responding to behavioral outcomes. After a 3-day withdrawal, the ability of intravenously administered METH or 1-(2,5-dimethoxy-4-iodophenyl)-2-aminopropane (DOI) to increase ventral pallidal cell firing was enhanced in chloral hydrate-anesthetized rats, as shown by a leftward shift in the dose-response curve with a […] and an increase in response efficacy for both agonists (FIG. 16) and this occurred without any changes in the portion of neurons showing a rate increase or decrease to the acute METH challenge.
Electrophysiological assessment of the ventral pallidum was also conducted 30 days after repeated METH. […] For each experiment, an i.v. METH dose-response curve (METH was tested using a range of 0.06-2.0 mg/kg in saline vehicle) was generated for one ventral pallidal neuron per rat at 30 days withdrawal from repeated METH. Based on the analysis of curves where there was an excitatory effect of i.v. METH on ventral pallidal neurons (171 animals), there was a diminished excitatory effect of i.v. METH in the ventral pallidum of rats that were pretreated with METH only. This is illustrated by both the curves and corresponding Emax data in FIG. 17. This decrease only at long-term withdrawal mirrors the reduction seen in pallidal pCREB only after 14, but not at 3 day withdrawal from repeated METH (see Example III).

The target in another test is α1. The conditions noted are these: read-out: receptor affinity (Ki) α1; cited from earlier work.

As for `CN1CCN2c3ncccc3Cc3ccccc3[C@@H]2C1` (racemic) [mirtazapine, 1,2,3,4,10,14b-hexahydro-2-methyl-pyrazino[2,1-a]pyrido[2,3-c]benzazepine], the “Emax of Firing Rate Increases of Acute Meth” value in the test on ventral pallidal neurons (METH days 1-5, then antagonist, tested 31 days after last METH) is given as 251% ± 21% (n = 5); with ventral pallidal neurons (Sal days 1-5, then antagonist, tested 31 days after last injection), 240% ± 44% (n = 5). Moreover, the “effect of repeated METH on response of ventral pallidal neurons to acute METH challenge” value in the test with ventral pallidal neurons (after 30 days withdrawal) is “reversal”. Moreover, the Ki on α1 was 500 nM.

For orientation: Ki means a dissociation constant, usually derived from enzyme kinetics or from competition with a known ligand.

The values above are taken from US20060035889A1, “Treatment for methamphetamine addiction and reduction of methamphetamine use using serotonin antagonists” (priority 2004, published 2006).
